The values below come from patent EP2511272B1, “Synthetic analogues of abscisic acid with anti-inflammatory and insulin release stimulation effects on human cells” (Universita' degli Studi di Genova, priority 2011, dated 2012).

In data set [1] the test system is Raw 264.7 (murine monocitic leukemia). Kind of data set: Cytotoxicity, CellTiter 96 AQueous One Solution assay. The data set is classed as cell-based. Particulars: 24 hrs.
Data set [2] in a line: Stability after extraction from H2O and HBSS (HPLC-MS). The format is physicochemical. The settings on record: for Stability after extraction (amount found): 10 µM; for degradation: 0 vs 24 hrs. Here is the method: Compound prepared according to example 1 was tested for stability at 10 µM concentration in deionized water, phosphate buffer (HBSS with calcium and magnesium) and human plasma for 0 and after 24 hrs at 37 °C, by carrying out the extraction as described in Materials and Methods, and subsequent HPLC-MS analysis for the analyte of interest.
For stability tests, to 2 ml of deionized water, HBSS or human plasma, the compound of example 1 (10 µM) and 5,000 cpm of [^3H]ABA were added, for the purpose of evaluating the recovery after the extraction procedure. The so prepared samples were exctracted at time 0 and after 24 hrs.
For the extraction, 8 ml was added of distilled methanol (methanol/water : 80/20 vol/vol) and the mixture was kept at -20 °C overnight.
The following day the samples were centrifuged at 800xg for 10 minutes and the supernatant was concentrated to dryness by Rotavapor. The reconstituted aqueous solution was acidified at pH 2.6 with 10 % trifluoroacetric acid (TFA) and was extracted three times with diethyl ether (diethyl ether/water: 1:1 vol/vol).
The ethereal phase was finally removed by Rotavapor and the extraxt was resuspended in 1 ml of HBSS; 8 µl of such solution was analysed by HPLC-MS, and 100 µl was used for radioactivity counting by a Packard β-counter in order to compute extraction recovery.
The HPLC-MS system used consists of an Agilent 1100 capillary chromatograph equipped with a diode array detector (DAD) and coupled with an Agilent 1100 series LC/MSD Trap mass spectometer with orthogonal electrospray source and a ionic-trap analyser.
The detection wavelength was 254 nm and the MS spectrum was recorded in negative ions mode in an m/z range of 50-300.
The amount of compound of example 1 in the extracts and supernatants was computed as the area of the peak under the extracted ion current m/z 279.3, normalized for the ionization efficiency of internal standard (hexadeuterated ABA) used for HPLC-MS analysis. Furthermore, the concentration was computed using the recovery rates obtained from the evaluation of counts per minute (cpm) of extracted [^3H]ABA.

The subject of the next data set is human granulocytes. Description: Inhibition of ABA-induced PGE2 production in granulocytes (EIA). Particulars: 6 h. The format is cell-based. Here is the method: Granulocytes, in a number of 1x10^7 per point in RPMI supplemented with 10 % of foetal calf serum (FCS), penicillin (50 units/ml) and streptomycin (50 µg/ml) (complete RPMI), were incubated for 6 h with […] either alone or in the presence compound prepared according to example 1 at a concentration of 100 nM or of 1 µM. At the end of the incubation, the substrate was centrifuged at 17,000xg for 5 minutes and the concentration of PGE2 was quantitated by using the kit: PGE2 monoclonal EIA kit (Cayman Chemical Co.), following the instructions suppled by the manufacturer.
The cells were lysed in 200 µl of deionized water in order to quantitate total proteins by the Bradford method (Bradford, M. M., 1976), after thre preliminary generation of a reference standard curve, obtained with different concentrations of bovine serum albumin. The spectrophotometric measurements were carried out at wavelength of 595 nm.
The experiment was carried out three times in triplicate TABLE 6). TABLE 6. Inhibition of PGE2 production, in human granulocytes stimulated with ABA, by compound prepared according to example 1

The target in data set [3] is T1, ABA receptor (Homo sapiens, UniProt Q9NS86).
T1 construct: endogenous in cells; host or cells: human granulocytes (intact cells)
T1 sequence (Q9NS86 1-450): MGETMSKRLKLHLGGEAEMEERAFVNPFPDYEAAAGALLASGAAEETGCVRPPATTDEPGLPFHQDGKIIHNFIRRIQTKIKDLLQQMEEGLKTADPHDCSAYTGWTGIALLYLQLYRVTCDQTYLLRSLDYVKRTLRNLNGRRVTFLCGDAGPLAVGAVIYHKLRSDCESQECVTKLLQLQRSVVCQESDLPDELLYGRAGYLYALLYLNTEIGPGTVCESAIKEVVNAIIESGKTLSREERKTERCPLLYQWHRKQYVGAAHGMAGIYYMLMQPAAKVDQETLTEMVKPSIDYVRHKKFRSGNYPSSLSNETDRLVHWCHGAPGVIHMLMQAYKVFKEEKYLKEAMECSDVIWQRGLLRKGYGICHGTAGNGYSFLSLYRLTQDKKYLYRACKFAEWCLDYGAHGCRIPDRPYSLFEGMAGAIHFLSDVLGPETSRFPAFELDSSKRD
Kind of data set: Competition binding with [^3H]-ABA on human granulocytes. The procedure: Human granulocytes (7 x 10^6 per point), after ON incubation in complete DMEM/F12, were incubated in triplicate at 25 °C for 60 min in 100 µl of HBSS spiked with glucose 10 mM in the presence either of an excess of unlabeled ABA (1 mM) (in order to determine the non-specific binding rate) or of increasing concentrations of compound prepared according to example 1 (from 0,01 nM up to 100 µM). To each compound, 10 nM of [^3H]-ABA (GE Healthcare) with specific activity of 98,000 cpm/pmole were added. At the end of incubation, the cells were centrifuged for 30 sec at […], the supernatant was removed and discarded, and the pellet was washed once wih an excess of HBSS in ice, and centrifuged for 30 sec at 17,000xg. The pellet was resuspended in 200 µl of de-ionized water and radioactivity of cells was determined after addition of scintillation cocktail in a β counter.
Specific binding was computed as the difference between the total binding of [^3H]-ABA in the cells and the binding of [^3H]-ABA in the presence of an excess of unlabeled ABA (1 mM) (non-specific binding).
The experiment was carried out five times in triplicate.

For data set [4], the target named is T1, ABA receptor. The settings on record: value used in Cheng-Prusoff equation (Yamazaki e al., 2003); cited from earlier work.

Consider `CC(=C/C(=O)O)/C=C/C1(O)C(C)(C)CC(=O)C2OC21C` (stereo not drawn) [Example 1, 2'α,3'α-dihydro-2'α,3'α-epoxyabscisic acid], for which the number of cells in data set [1] (1 nM) came to 306321; in data set [1] (10 nM), 30555; in data set [1] (1 µM) it was 274987; in data set [1] (100 µM) it was 290264. The vitality % came out at 100% in data set [1] (1 nM), 100% in data set [1] (10 nM), 90% in data set [1] (1 µM) and 95% in data set [1] (100 µM). Also, the “Stability after extraction (amount found)” value amounted to 100% in data set [2] (H2O, 0 hr, equals extraction yield, listed as compound of example 1); 100% in data set [2] (H2O, 0 hr, equals extraction yield, listed as compound prepared according to example 1); 86% in data set [2] (H2O, 24 hrs at 37 °C); 76% in data set [2] (HBSS, 0 hr, equals extraction yield, listed as compound of example 1); 76% in data set [2] (HBSS, 0 hr, equals extraction yield, listed as compound prepared according to example 1); 73% in data set [2] (HBSS, 24 hrs at 37 °C). The degradation in data set [2] (in phosphate buffer) stood at 3%; in data set [2] (in water), 14%. In addition, the inhibition at 0.1 µM in the data set with human granulocytes (ABA 100 nM + compound 100 nM) turned out to be 85%. Besides, the inhibition at 1 µM in the data set with human granulocytes (ABA 100 nM + compound 1 µM) is 100%. On ABA receptor [3] (Cheng-Prusoff, [ABA] =10 nM, KD ABA = 11 nM, 95% confidence intervals 0.25 nM to 0.83 nM, read-out: inhibition constant Ki), the Ki worked out at 460 pM. For the same compound, at ABA receptor [3] (displaces 50 % of radioligand specific binding, 95 % confidence intervals 0.48 nM to 1.58 nM), the IC50 worked out at 870 pM.

In the case of `CC1=CC(=O)CC(C)(C)C1(O)/C=C/C(C)=C\C(=O)O` (racemic) [ABA, (2Z,4E)-5-(1-hydroxy-2,6,6-trimethyl-4-oxo-2-cyclohexen-1-yl)-3-methyl-2,4-pentadienoic acid, reference compound], on ABA receptor [4], the Kd is 11000 pM.

One may read the inhibition as how much of the control response was suppressed. In general, Ki refers to a dissociation constant, usually derived from enzyme kinetics or from competition with a known ligand. For orientation: IC50 means the concentration that inhibits the measured activity by half. A lower IC50 goes with inhibition by little substance. By Kd is commonly meant the concentration at which binding is half-saturated.
